# Patent publication US20040067998A1, “Antifungal and/or antiparasitic pharmaceutical composition and novel indole derivatives as active principle of such a composition” (priority 2003, published 2004)
# Several values for one entry are separate records, joined by “and”; a condition that tells them apart may be missing. Equal values may be shown once. Entries after “also recorded” stand apart in the source; their conditions may differ. Read-outs that look alike come from different tables or passages of the source.
# How the values were obtained:
# [1] = test system: Candida albicans (strain n° CA980001); experiment: Antifungal activity on a clinical strain of Candida albicans (MTT colorimetric microplate test); assay type: cell-based; settings: strain CA980001; for MIC: read-out: CMI or CI80 Candida albicans (CA980001)
# [2] = test system: Aspergillus fumigatus (strain n°AF 980003); experiment: Antifungal activity on a clinical strain of Aspergillus fumigatus (Alamar Blue microplate test); assay type: cell-based; settings: Aspergillus fumigatus, strain AF980003, read-out: CMI or CI80 Aspergillus fumigatus (AF980003)
# [3] = test system: promastigote stage of Leishmania mexicana; experiment: Antiparasitic activity on the promastigote form of Leishmania (MTT); assay type: cell-based
# [4] = test system: Candida albicans (CA98001); experiment: Antifungal activity in vivo on a model of disseminated candidiasis; parameters: species or system female Swiss mice; settings: for survival at D10: Test N°4
# [5] = test system: intracellular amastigote form of Leishmania mexicana; experiment: Anti-leishmanian activity on the amastigote form in peritoneal macrophages of BALB/c mice; assay type: cell-based; settings: for IC50: Leishmania mexicana, Peritoneal macrophage, read-out: CI50 Intracellular amastigotes
# [6] = test system: Leishmania major; experiment: Anti-leishmanian activity in vivo on a model of cutaneo-mucosal and visceral leishmaniasis; parameters: species or system male BALB/c mice
# Experimental: (1999), Croft et al. (1993) and Hill et al. (1983). The animals used (Centre d'élevage R. Janvier, Le Genest-St-France) were male BALB/c mice, aged 7 weeks at the time of inoculation of the parasites. This operation was performed in accordance with the legislation relating to animal experimentation. […] Days after the inoculation, the treatment was administered intraperitoneally for 10 days. Three weeks after the treatment, its effectiveness was determined by determining the parasite level in the liver, spleen, popliteal ganglion and the cutaneous lesion.
# [7] = test system: Candida albicans (4 strains); experiment: Antifungal activity in vitro on clinical strains of Candida: albicans (4 strains); assay type: cell-based
# [8] = test system: Candida krusei (4 strains); experiment: Antifungal activity in vitro on clinical strains of Candida: krusei (4 strains); assay type: cell-based
# [9] = test system: Candida lusitaniae (1 strain); experiment: Antifungal activity in vitro on clinical strains of Candida: lusitaniae (1 strain); assay type: cell-based; settings: for CI80 on clinical strains of Candida: strain CL980001 (Candida lusitaniae)
# [10] = test system: Candida parapsilosis (2 strains); experiment: Antifungal activity in vitro on clinical strains of Candida: parapsilosis (2 strains); assay type: cell-based
# [11] = test system: clinical strains of Candida; experiment: Antifungal activity in vitro on several clinical strains of Candida (overall statement over all strains); assay type: cell-based; settings: summary of Table 41
# [12] = test system: Candida tropicalis (1 strain); experiment: Antifungal activity in vitro on clinical strains of Candida: tropicalis (1 strain); assay type: cell-based; settings: strain CT980002 (Candida tropicalis)
# [13] = test system: synthesis of ergosterol; experiment: Mechanism of action: quantification of ergosterol (HPLC and UV spectrophotometry); assay type: cell-based
# Text: The principal mechanism of action of the triazole derivatives is the inhibition of the synthesis of ergosterol leading to instability of the cell membrane. […] These two techniques require a prior saponification of the sample followed by an extraction of the sterols present. The results obtained are expressed in μg of ergosterol per g of sample. The activity of the derivatives studied is expressed by their capacity to inhibit the synthesis of ergosterol compared to an untreated control sample.
# [14] = Candida albicans, 24 h at 37° C., MTT
# [15] = Leishmania mexicana; promastigotes; 36 h at 26° C., MTT; read-out: CI50 Leishmania mexicana Promastigotes
# [16] = Test N°3, 3 × 20 mg/kg/d for 5 d intraperitoneal
# [17] = compound 45 intraperitoneally for 10 days, dose not given, three weeks after treatment
# [18] = strain CA980001 (Candida albicans)
# [19] = strain CK980002 (Candida krusei)
# [20] = strain CK980003 (Candida krusei)
# [21] = strain CK980004 (Candida krusei)
# [22] = strain CP980002 (Candida parapsilosis)
# [23] = Test N°3, ketoconazole 20 mg/kg/d for 5 d
smiles,measurement,setting,value
"CCn1cc(C(c2ccc(Cl)cc2Cl)n2cncn2)c2cc(Br)ccc21 (centres unmarked) [Cpsé 47, 5-Bromo-1-ethyl-3-[(2,4-dichlorophenyl)(1H-1,2,4-triazol-1yl)methyl]-1H-indole]",MIC,[1]; [14],> 100 µM
same,MIC,[2]; Alamar Blue,> 100 µM
same,IC50,[3]; [15],25 µM and 8.07 µg/mL
same,melting point,,124 to 126 °C
"CCN1CCc2cc(Br)cc(C(c3ccc(F)cc3)n3ccnc3)c21 (centres unmarked) [Cpsé 51, 5-Bromo-1-ethyl-7-[(4-fluorophenyl)(1H-imidazol-1-yl)methyl]indoline]",MIC,[1]; [14],> 100 µM
same,MIC,[2]; Alamar Blue,> 100 µM
same,IC50,[3]; [15],59.2 µM and 23.8 µg/mL
same,melting point,,120 to 123 °C
"Clc1ccc(Cn2cc(CCn3ccnc3)c3ccccc32)cc1 [Cpsé 59, 1-(4-Chlorobenzyl)-3-(2-1H-imidazol-1-ylethyl)-1H-indole]",melting point,,78 to 80 °C
"Clc1ccc(Cn2cc(C3(Cn4ccnc4)CCCC3)c3ccccc32)cc1 [Cpsé 63, 1-[1-(4-Chlorobenzyl)-1H-indol-3yl]-1-(1H-imidazol-1-ylmethyl)cyclopentane]",melting point,,91 to 92 °C
"OC(Cn1cncn1)(Cn1ccc2ccccc21)c1ccc(Cl)cc1Cl (centres unmarked) [Cpsé 78, 2-(2,4-Dichlorophenyl)-1-(1,2,4-1H-triazol-1-yl)-3-(indol-1-yl)propan-2-ol]",MIC,"[1]; Candida albicans, 24 h",> 100 µM
same,MIC,[2],> 100 µM
same,activity against Leishmania mexicana (in words),[3],most active
same,IC50,[3]; Leishmania mexicana; read-out: CI50 Leishmania mexicana Promastigotes,0.1 µg/mL and 230 nM
same,parasite level in the kidneys compared with the control group (in words),[4]; [16],significant reduction
same,activity against the intracellular amastigote form of Leishmania (in words),[5],very active
same,IC50,[5]; intracellular amastigote form,1.5 ± 0.01 µg/mL
same,reduction of the hepatic parasite level,[6]; [17],79%
same,reduction of the spleen parasite level,[6]; [17],98.9%
"CNC[C@H](O)[C@@H](O)[C@H](O)[C@H](O)CO.[O]=[Sb](=[O])[OH] [Glucantime ®, meglumine antimoniate, reference compound]",CI50 Leishmania mexicana Promastigotes,[3],15000 ± 260 µg/mL
same,IC50 on the amastigote stage of Leishmania mexicana,[5],48.7 µg/mL
same,reduction of the hepatic parasite level,"[6]; Glucantime 10 mg/Kg/d, 10 days",74%
same,reduction of the spleen parasite level,"[6]; Glucantime 10 mg/Kg/d, 10 days",82%
"CC(=O)N1CCN(c2ccc(OCC3COC(Cn4ccnc4)(c4ccc(Cl)cc4Cl)O3)cc2)CC1 (centres unmarked) [Ketoconazole, ketoconazole, reference compound]",MIC,"[1]; Candida albicans, 24 h",0.0094 µM
same,CMI or CI80 Candida albicans (CA980001),[1],0.005 µg/mL
same,IC50,"[3]; Leishmania mexicana, read-out: CI50 Leishmania mexicana Promastigotes",3 ± 0.5 µg/mL
same,CI80 on clinical strains of Candida,[7]; [18],5 nM
same,CI80 on clinical strains of Candida,[8]; [19],700 ± 20 nM
same,CI80 on clinical strains of Candida,[8]; [20],800 ± 20 nM
same,CI80 on clinical strains of Candida,[8]; [21],<10 nM
same,CI80 on clinical strains of Candida,[9],<10 nM
same,CI80 on clinical strains of Candida,[10]; [22],<10 nM
same,survival at D14,"[4]; Test N°1, ketoconazole 20 mg/kg/d for 5 d",88%
same,survival at D14,"[4]; Test N°2, ketoconazole 10 mg/kg/d for 5 d",Ketoconazole: no survival at D14.
same,survival at D14,[4]; [23],88%
same,survival at D18,[4]; [23],50%
same,survival at D10,[4]; ketoconazole 20 mg/kg/d for 5 d,50%
same,IC50,[5],1.3 ± 0.2 µg/mL
OC(Cn1cncn1)(Cn1ccc2ccccc21)c1ccc(Cl)cc1Cl (centres unmarked) [compound 78],MIC,[1],<0.001 µM
same,IC50,[3]; promastigotes; read-out: CI50 Leishmania mexicana Promastigotes,< 1000 nM
same,activity against different strains of Candida (in words),[11],most active
same,activity against strains of Candida albicans (in words),[7]; clinical strains,active; also recorded: very active
same,CI80 on clinical strains of Candida,[7]; [18],<1 nM
same,CI80 on clinical strains of Candida,[7]; strain CA980002 (Candida albicans),<10 nM
same,CI80 on clinical strains of Candida,[7]; strain CA980003 (Candida albicans),<10 nM
same,CI80 on clinical strains of Candida,[7]; strain CA980005 (Candida albicans),<10 nM
same,activity against Candida krusei (in words),"[8]; clinical strains, b748: one strain",active; also recorded: very active
same,CI80 on clinical strains of Candida,[8]; strain CK980001 (Candida krusei),<10 nM
same,CI80 on clinical strains of Candida,[8]; [19],7200 ± 100 nM
same,CI80 on clinical strains of Candida,[8]; [20],9200 ± 40 nM
same,CI80 on clinical strains of Candida,[8]; [21],300 ± 100 nM
same,activity against Candida lusitaniae (in words),[9]; clinical strain,very active
same,CI80 on clinical strains of Candida,[9],<10 nM
same,activity against Candida parapsilosis (in words),[10]; clinical strains,very active
same,CI80 on clinical strains of Candida,[10]; strain CP980001 (Candida parapsilosis),<10 nM
same,CI80 on clinical strains of Candida,[10]; [22],530 ± 120 nM
same,CI80 on clinical strains of Candida,[12],<10 nM
same,effect of treatment on the survival of the animals (in words),"[4]; Test N°2, 2 × 30 mg/kg/d for 5 d intraperitoneally, monitored 14 days (78: from D9 to D14)",significantly prolonged the survival
same,survival at D14,[4]; [16],100%
same,survival at D18,[4]; [16],75%
same,survival greater than that of the reference treatment (ketoconazole 20 mg/kg),"[4]; Test N°3, 3 × 20 mg/kg/d, experiment continued for 4 more days (D18)",25%
same,survival at D10,"[4]; 3 × 20 mg/kg/d for 5 d, treatment intraperitoneal or per os",100%
same,inhibition of the synthesis of ergosterol (in words),[13]; preliminary results,strong inhibition
same,reduction of the presence of ergosterol (HPLC determination),"[13]; treatment for 24 hours at 10 μg, HPLC",70%
same,"ergosterol in the treated sample (UV spectrophotometry, in words)","[13]; treatment for 24 hours at 10 μg, UV spectrophotometry",absence of ergosterol
